Data from patent US9242001B2, “Cationic lipids for therapeutic agent delivery formulations” (Nitto Denko Corporation, priority 2011, dated 2016).

Test system: gp46 mRNA
Assay: pHSC in vitro assay, gp46 gene knockdown by qRT-PCR
Type: cell-based, rat
Conditions: @ 50 nM

Row | Compound | in vitro (pHSC) % KD
1 | CCCCC/C=C\C/C=C\CCCCCCCC(=O)OCCN(CCOC(=O)CCCCCCC/C=C\C/C=C\CCCCC)C(=O)C[N+](C)(C)CCO.[Br-] [HEDC-DLin, 2-(bis(2-((9Z,12Z)-octadeca-9,12-dienoyloxy)ethyl)amino)-N-(2-hydroxyethyl)-N,N-dimethyl-2-oxoethanaminium bromide] | i. 50% @ 50 nM
2 | CCCCCCCCCCCC(=O)OCCN(CCOC(=O)CCCCCCCCCCC)C(=O)C[N+](C)(C)CCO.[Br-] [HEDC-12, 2-(bis(2-(dodecanoyloxy)ethyl)amino)-N-(2-hydroxyethyl)-N,N-dimethyl-2-oxoethanaminium bromide] | i. 0% @ 50 nM
